Source: publication PMC9133015 (Nature Communications, 2022)
Values joined by “and” are separate entries in the source; they are usually repeats but may differ in a detail not shown here. Equal values may be shown once. “Also recorded” adds a separate entry of the source.

Legend:
DYRK2 = target: T1, DYRK2 (Homo sapiens, UniProt Q92630); test: DYRKs kinase activity assay (33P-ATP, DYRKtide substrate): DYRK2; type: biochemical
T1 construct: purchased Reaction Biology Corporation (assay service)
T1 sequence (Q92630 1-601): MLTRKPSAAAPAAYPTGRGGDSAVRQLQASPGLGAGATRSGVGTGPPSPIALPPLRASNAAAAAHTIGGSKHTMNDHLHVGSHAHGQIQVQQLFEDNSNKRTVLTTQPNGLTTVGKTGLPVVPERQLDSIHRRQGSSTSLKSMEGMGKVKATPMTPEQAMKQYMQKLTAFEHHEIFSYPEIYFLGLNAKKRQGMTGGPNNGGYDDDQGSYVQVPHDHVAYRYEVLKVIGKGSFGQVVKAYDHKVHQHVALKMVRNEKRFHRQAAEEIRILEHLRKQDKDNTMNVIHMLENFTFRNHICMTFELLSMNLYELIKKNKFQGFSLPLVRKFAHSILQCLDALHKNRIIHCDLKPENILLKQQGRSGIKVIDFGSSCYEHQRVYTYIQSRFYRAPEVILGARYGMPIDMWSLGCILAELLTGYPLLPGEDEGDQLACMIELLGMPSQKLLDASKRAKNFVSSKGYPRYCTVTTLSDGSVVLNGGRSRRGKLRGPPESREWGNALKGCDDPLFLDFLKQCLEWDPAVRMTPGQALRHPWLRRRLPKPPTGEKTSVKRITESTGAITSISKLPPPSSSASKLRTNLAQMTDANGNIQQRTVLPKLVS

DYRK3 = target: T2, DYRK3 (Homo sapiens, UniProt O43781); test: DYRKs kinase activity assay (33P-ATP, DYRKtide substrate): DYRK3; type: biochemical
T2 construct: purchased Reaction Biology Corporation (assay service)
T2 sequence (O43781 1-588): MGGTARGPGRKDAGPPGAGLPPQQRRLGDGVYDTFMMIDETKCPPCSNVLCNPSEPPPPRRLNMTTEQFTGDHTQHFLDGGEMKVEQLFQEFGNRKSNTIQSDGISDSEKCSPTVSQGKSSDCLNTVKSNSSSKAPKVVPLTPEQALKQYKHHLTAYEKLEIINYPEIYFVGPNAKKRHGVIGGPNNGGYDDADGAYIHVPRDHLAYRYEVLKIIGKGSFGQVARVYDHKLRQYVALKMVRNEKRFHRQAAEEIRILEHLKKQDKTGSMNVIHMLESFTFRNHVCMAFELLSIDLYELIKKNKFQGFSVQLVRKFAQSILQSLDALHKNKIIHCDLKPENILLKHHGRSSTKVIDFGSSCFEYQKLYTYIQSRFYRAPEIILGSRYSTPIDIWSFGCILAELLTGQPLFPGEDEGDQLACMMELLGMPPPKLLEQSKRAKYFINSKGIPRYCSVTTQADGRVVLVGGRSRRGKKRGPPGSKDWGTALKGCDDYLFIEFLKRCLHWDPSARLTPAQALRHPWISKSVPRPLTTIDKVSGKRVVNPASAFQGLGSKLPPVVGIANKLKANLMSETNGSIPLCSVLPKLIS

ICR mice = test: Acute toxicity study; type: in vivo
DYRK1B = target: T3, DYRK1B (Homo sapiens, UniProt Q9Y463); test: DYRKs kinase activity assay (33P-ATP, DYRKtide substrate): DYRK1B; type: biochemical
T3 construct: purchased Reaction Biology Corporation (assay service)

[1] = ICR mice, single oral dose 2500, 5000, 10,000 mg/kg, 14 days

T3 sequence (Q9Y463 whole entry): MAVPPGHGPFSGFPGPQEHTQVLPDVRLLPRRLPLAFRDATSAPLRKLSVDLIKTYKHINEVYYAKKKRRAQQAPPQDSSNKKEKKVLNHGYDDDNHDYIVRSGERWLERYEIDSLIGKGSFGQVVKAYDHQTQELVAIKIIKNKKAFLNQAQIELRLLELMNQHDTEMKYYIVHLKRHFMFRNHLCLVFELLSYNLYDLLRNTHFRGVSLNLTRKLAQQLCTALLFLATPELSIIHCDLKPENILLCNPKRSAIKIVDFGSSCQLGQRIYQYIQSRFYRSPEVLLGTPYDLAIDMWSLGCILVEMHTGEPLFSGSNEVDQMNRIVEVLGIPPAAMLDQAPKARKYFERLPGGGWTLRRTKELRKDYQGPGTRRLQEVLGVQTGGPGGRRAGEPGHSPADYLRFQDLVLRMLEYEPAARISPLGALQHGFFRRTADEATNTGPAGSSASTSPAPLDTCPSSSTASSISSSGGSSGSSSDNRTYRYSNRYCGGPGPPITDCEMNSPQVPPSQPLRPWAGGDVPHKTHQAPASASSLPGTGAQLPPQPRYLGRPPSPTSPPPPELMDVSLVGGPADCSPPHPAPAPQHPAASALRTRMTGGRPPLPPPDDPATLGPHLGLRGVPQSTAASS

CCN1CCN(C(=O)c2ccc(Nc3ncc(F)c(-c4ccc5nc(N(C)C)sc5c4)n3)nc2)CC1 [YK-2-69] was tested, and the inhibition at 0.00228624 µM (DYRK2; 0.00228624 µM, duplicates, read-out: % Inhibition DYRK2) was 26.1%, the inhibition at 0.00685871 µM (DYRK2; 0.00685871 µM, duplicates, read-out: % Inhibition DYRK2) was 53% and the inhibition at 0.0205761 µM (DYRK2; 0.0205761 µM, duplicates, read-out: % Inhibition DYRK2) was 65.2%. The inhibition at 0.0617284 µM (DYRK2; 0.0617284 µM, duplicates, read-out: % Inhibition DYRK2) was 82.1%, the inhibition at 0.185185 µM (DYRK2; 0.185185 µM, duplicates, read-out: % Inhibition DYRK2) was 94.1% and the inhibition at 0.555556 µM (DYRK2; 0.555556 µM, duplicates, read-out: % Inhibition DYRK2) was 96.8%. The inhibition at 5 µM (DYRK2; 5 µM, duplicates, read-out: % Inhibition DYRK2) was 97.8%, the IC50 (DYRK2; read-out: DYRK2 IC50) was 9 nM and the IC50 (DYRK3) was greater than 1000 nM. The “% Inhibition DYRK3” value (DYRK3; 0.000762079 µM, duplicates) was -8.00% and -1.03%, the “% Inhibition DYRK3” value (DYRK3; 0.00228624 µM, duplicates) was -10.03% and -2.95% and the “% Inhibition DYRK3” value (DYRK3; 0.00685871 µM, duplicates) was -8.21% and -7.66%. The “% Inhibition DYRK3” value (DYRK3; 0.0205761 µM, duplicates) was -2.65% and -5.02%, the “% Inhibition DYRK3” value (DYRK3; 0.0617284 µM, duplicates) was 11.61% and the inhibition at 0.0617284 µM (DYRK3; 0.0617284 µM, duplicates) was 6.58%. The “% Inhibition DYRK3” value (DYRK3; 0.185185 µM, duplicates) was 29.90%, the inhibition at 0.185185 µM (DYRK3; 0.185185 µM, duplicates) was 28.2% and the “% Inhibition DYRK3” value (DYRK3; 0.555556 µM, duplicates) was 51.81%. For the same molecule, the inhibition at 0.555556 µM (DYRK3; 0.555556 µM, duplicates) was 49.4%, the “% Inhibition DYRK3” value (DYRK3; 1.66667 µM, duplicates) was 53.48% and the “% Inhibition DYRK3” value (DYRK3; 5 µM, duplicates) was 56.27%. The inhibition at 5 µM (DYRK3; 5 µM, duplicates) was 56.1%, the inhibition at 1.66667 µM (DYRK3; read-out: % Inhibition DYRK3, 1.66667 µM, duplicates) was 50.8% and the “selectivity over DYRK3” value (DYRK3; vs DYRK2) was “more than 100 fold”. The “Figure S9b Heart (organ weight, individual mice)” value (from here on “Figure S9b Heart”) (ICR mice; 2500 mg/kg) was 0.094 and 0.137 and 0.125 and 0.146 and 0.118 and 0.152 and 0.105 and 0.097 and 0.092 and 0.115, the “Figure S9b Kidney (organ weight, individual mice)” value (“Figure S9b Kidney” for short) (ICR mice; 2500 mg/kg) was 0.384 and 0.403 and 0.421 and 0.413 and 0.636 and 0.576 and 0.731 and 0.682 and 0.613 and the “Figure S9b Liver (organ weight, individual mice)” value (from here on “Figure S9b Liver”) (ICR mice; 2500 mg/kg) was 1.351 and 1.216 and 1.284 and 1.094 and 1.159 and 1.384 and 1.751 and 1.369 and 1.52 and 1.491. The “Figure S9b Lung (organ weight, individual mice)” value (“Figure S9b Lung” for short) (ICR mice; 2500 mg/kg) was 0.316 and 0.435 and 0.421 and 0.358 and 0.299 and 0.367 and 0.294 and 0.341 and 0.276 and 0.336, the “Figure S9b Spleen (organ weight, individual mice)” value (“Figure S9b Spleen” below) (ICR mice; 2500 mg/kg) was 0.176 and 0.186 and 0.205 and 0.201 and 0.214 and 0.253 and 0.196 and 0.221 and 0.206 and 0.257 and the “Figure S9a body weight of individual mice” value (“Figure S9a body weight” for short) (ICR mice; 2500 mg/kg, Day 0) was 19.9 and 20.5 and 20.1 (2×) and 20 and 19.6 and 19.8 and 20.3 and 20.6 and 21.1. For the same molecule, the “Figure S9a body weight” value (ICR mice; 2500 mg/kg, Day 2) was 20.2 (2×) and 20.8 and 20.3 (2×) and 20.4 and 19.8 and 20.6 and 20.9 and 21.5, the “Figure S9a body weight” value (ICR mice; 2500 mg/kg, Day 4) was 20.8 and 21.3 (2×) and 20.5 and 20.6 (2×) and 20.1 and 20.4 and 21.1 and 21.8 and the “Figure S9a body weight” value (ICR mice; 2500 mg/kg, Day 6) was 21.3 and 21.7 and 20.6 and 20.8 and 20.2 and 20.7 and 21.5 and 21.9 and 22.2 and 20.9. For the same molecule, the “Figure S9a body weight” value (ICR mice; 2500 mg/kg, Day 8) was 22.3 and 22.5 and 20.7 and 21.1 and 20.3 and 21 and 21.8 and 22.2 and 22.6 and 21.5, the “Figure S9a body weight” value (ICR mice; 2500 mg/kg, Day 10) was 22.9 and 23.2 and 20.9 and 21.4 and 20.5 and 21.3 and 22.2 and 22.5 and 23.4 and 21.9 and the “Figure S9a body weight” value (ICR mice; 2500 mg/kg, Day 12) was 23.5 and 23.9 and 21.2 and 21.7 and 20.6 and 21.6 and 22.4 (2×) and 22.9 and 23.8. For the same molecule, the “Figure S9a body weight” value (ICR mice; 2500 mg/kg, Day 14) was 24.2 and 24.5 and 21.4 and 22 and 20.9 and 21.8 and 22.9 (2×) and 23.4 and 24.3, the “Figure S9b Heart” value (ICR mice; 5000 mg/kg) was 0.126 and 0.135 and 0.116 and 0.143 and 0.138 and 0.106 and 0.112 and 0.096 and 0.094 and the “Figure S9b Kidney” value (ICR mice; 5000 mg/kg) was 0.369 and 0.416 and 0.389 and 0.444 and 0.502 and 0.384 and 0.569 and 0.612 and 0.656 and 0.715. The “Figure S9b Liver” value (ICR mice; 5000 mg/kg) was 1.316 and 1.128 and 1.421 and 1.266 and 1.156 and 1.841 and 1.669 and 1.581 and 1.384 and 1.492, the “Figure S9b Lung” value (ICR mice; 5000 mg/kg) was 0.401 and 0.386 and 0.456 and 0.512 and 0.379 and 0.452 and 0.253 and 0.302 and 0.281 and 0.317 and the “Figure S9b Spleen” value (ICR mice; 5000 mg/kg) was 0.2 and 0.186 and 0.199 and 0.214 and 0.231 and 0.25 and 0.241 and 0.267. For the same molecule, the “Figure S9a body weight” value (ICR mice; 5000 mg/kg, Day 0) was 21.4 and 20.5 (3×) and 19.7 and 20.2 and 19.6 and 19.9 and 20.3 and 21.1, the “Figure S9a body weight” value (ICR mice; 5000 mg/kg, Day 2) was 21.7 and 20.9 and 19.9 and 20.4 and 19.6 and 20.3 and 20.7 and 20.6 and 21.5 and 20.8 and the “Figure S9b Heart” value (ICR mice; 10000 mg/kg) was 0.115 and 0.099 and 0.142 and 0.128 and 0.122 and 0.129 and 0.089 and 0.096 and 0.124 and 0.106. The “Figure S9b Kidney” value (ICR mice; 10000 mg/kg) was 0.412 and 0.389 and 0.476 and 0.423 and 0.403 and 0.621 and 0.586 and 0.639 and 0.7 and 0.641, the “Figure S9b Liver” value (ICR mice; 10000 mg/kg) was 1.352 and 1.294 and 1.186 and 1.416 and 1.222 and 1.613 and 1.358 and 1.429 and 1.61 and 1.389 and the “Figure S9b Lung” value (ICR mice; 10000 mg/kg) was 0.418 and 0.361 and 0.395 and 0.475 and 0.486 and 0.369 and 0.384 and 0.416 and 0.336 and 0.333. The “Figure S9b Spleen” value (ICR mice; 10000 mg/kg) was 0.181 and 0.194 and 0.176 and 0.189 and 0.201 and 0.235 and 0.214 and 0.226 and 0.257, the maximal tolerable dose (ICR mice; ICR mice, single oral dose) was “more than 10,000 mg/kg” and the abnormality and death (ICR mice; [1]) was “no mice died; also recorded: No abnormality and death were observed”. For the same molecule, the “body weight and main organs vs control (in words)” value (ICR mice; [1]) was “no difference was detected”, the IC50 (DYRK1B) was 542 nM and the “% Inhibition DYRK1B” value (DYRK1B; 0.000762079 µM, duplicates) was 3.06% and 6.85%. For the same molecule, the “% Inhibition DYRK1B” value (DYRK1B; 0.00228624 µM, duplicates) was 3.24%, the inhibition at 0.00228624 µM (DYRK1B; 0.00228624 µM, duplicates) was 5.73% and the “% Inhibition DYRK1B” value (DYRK1B; 0.00685871 µM, duplicates) was 11.00%. For the same molecule, the inhibition at 0.00685871 µM (DYRK1B; 0.00685871 µM, duplicates) was 7.22%, the “% Inhibition DYRK1B” value (DYRK1B; 0.0205761 µM, duplicates) was 13.48% and the inhibition at 0.0205761 µM (DYRK1B; 0.0205761 µM, duplicates) was 9.47%. The “% Inhibition DYRK1B” value (DYRK1B; 0.0617284 µM, duplicates) was 24.87%, the inhibition at 0.0617284 µM (DYRK1B; 0.0617284 µM, duplicates) was 26.4% and the “% Inhibition DYRK1B” value (DYRK1B; 0.185185 µM, duplicates) was 44.86%. The inhibition at 0.185185 µM (DYRK1B; 0.185185 µM, duplicates) was 44.6%, the “% Inhibition DYRK1B” value (DYRK1B; 0.555556 µM, duplicates) was 57.04% and the inhibition at 0.555556 µM (DYRK1B; 0.555556 µM, duplicates) was 57.3%. For the same molecule, the “% Inhibition DYRK1B” value (DYRK1B; 1.66667 µM, duplicates) was 62.26%, the “% Inhibition DYRK1B” value (DYRK1B; 5 µM, duplicates) was 64.81% and the inhibition at 5 µM (DYRK1B; 5 µM, duplicates) was 65.1%. For the same molecule, the inhibition at 1.66667 µM (DYRK1B; read-out: % Inhibition DYRK1B, 1.66667 µM, duplicates) was 62.7% and the “selectivity over DYRK1B” value (DYRK1B; vs DYRK2) was 60 fold.
